Test results as given in patent US12195477B2, “Derivative of berberine, and the preparation method and application thereof” (priority 2021, dated 2025).

Legend:
[1] = test system: myocardial infarcted mice; assay: Mouse model of myocardial infarction (ligation of the left anterior descending coronary artery), cardiac function by ultrasonography; format: in vivo, C57BL/6 male mice; conditions: 2 weeks
Description: The mouse model of myocardial infarction was established by ligation of the left anterior descending branch of the coronary artery. The agent was then administrated to the mice to determine the effect of the test sample on myocardial ischemia, and the effect of the test sample on the cardiac functions of the myocardial infarct mice.
Random grouping: the C57BL/6 mice were randomly divided into 5 groups, namely the sham-operation group, the myocardial infarction group, the berberine group (berberine at a dosage of 40 mg/kg·d^−1), the test compound group (brominated 9-O-propyl berberine thiazole formate at a dosage of 40 mg/kg·d^−1) and the positive control group (sacubitril and valsartan sodium at a dosage of 26 mg/kg·d^−1).
The mouse model of myocardial ischemia was established by ligation of the left anterior descending branch of the coronary artery. Healthy male C57BL/6 mice (28±2 g) were anesthetized by intraperitoneal injection of aphrodin (0.2 g/kg). The anesthetic mice were placed in a supine position on the operation desk with the trachea connected to a ventilator by inserting a tracheal tube. An incision of about 0.5˜4.0 cm was made on the skin of the left chest from the upper left to the lower right. Pectoralis minor and serratus anterior were separated. The intercostal muscle was bluntly separated between the fourth and fifth rib, and the heart was slightly squeezed out.
Except for the sham-operation group, coronary artery ligation was performed to all other mice. The mice were randomly divided into 4 groups 24 hours after ligation, including the myocardial infarction group, the berberine group, the brominated 9-O-propyl berberine thiazole formate group and the positive control group. Blank solvent, berberine, brominated 9-O-propyl berberine thiazole formate and positive control sacubitril and valsartan sodium were administrated to the mice by gavage (as shown in Table 1) for consecutive 14 days. […]
The Experiment data were expressed as mean±standard error. […] All experiment results were statistically analyzed by Graphpad Prism 8.0.

[2] = test system: primary cardiac cells from neonatal mice; assay: Cytotoxicity test, CCK-8 assay; format: cell-based; conditions: 24 hours
Description: The toxicity of the novel compound, brominated 9-O-propyl berberine thiazole formate, on the primary cardiac cells from neonatal mice was detected using CCK-8 assay. The CCK-8 agent contains WST-8, which has the chemical name: 2-(2-methoxy-4-nitrophenyl)-3-(4-nitrophenyl)-5-(2,4-disulfophenyl)-2H-tetrazolium sodium salt. It can be reduced to yellow formazan with high water solubility by the dehydrogenase existing in the mitochondrion in a cell in the presence of electron carrier 1-methoxy-5-methylphenazinium methyl sulfate (1-Methoxy PMS). The amount of formazan generated is proportional to the number of live cells. The absorbance is detected at a wavelength of 450 nm by an enzyme-linked immunosorbent assay, which represents the number of live cells, in which a larger value indicates a higher cell activity. […]
After digestion, the primary cardiac cells from neonatal mice were re-suspended into a 96-well plate at a appropriate concentration with volume of 100 μl for each well. […] After incubation at 37° C. for 1-4 hours, the mixture was placed in a micro-plate reader and shaken for 10 s. The absorbance at 450 nm (OD450) was recorded.
The relative inhibition rate of the compound at various concentrations on the primary cardiac cells from neonatal mice was calculated based on the equation: cell inhibition rate (%)=(1−OD450 of the sample group/OD450 of the control group)*100. […]

[3] = test system: primary cardiac cells from neonatal mice after H2O2 treatment; assay: ATP in H2O2-injured primary cardiac cells (luciferase kit); format: cell-based
Description: A kit has been used in this study, based on that ATP is demanded to provide energy during the fluorescence production by the fluorescein catalyzed by the firefly luciferase (also termed as luciferase). When both luciferase and fluorescein are excessive, in a certain concentration range, the fluorescence generated is proportional to the concentration of ATP. That is, the concentration of ATP in the solution can be detected sensitively.
(§1) After disinfecting the neonatal mice (within 3 days after birth) by alcohol, the skin and sternum of the left chest were cut off at one time using a scissor. The heart was then squeezed out, taken and put into a pre-cooled FBS-free DMEM culture medium with a curved forceps. The blood vessels on the surface of heart, the residual blood and the attached lung tissue were removed. The heart tissue was cut into pieces with homogeneous size. The heart pieces were drawn into a 15 ml centrifuge tube, and the supernatant was discarded. The tissue was rinsed by PBS for 2-3 times. The trypsinization solution was added at equivalent volume of the heart tissue. The centrifuge tube was kept shaken to accelerate digestion. After the solution become turbid, the digestion was stopped by transferring the solution to DMEM culture medium. After the digestion of all heart tissues was completed, the digest was filtered by a sieve, and centrifuged at 1500 rpm for 5 min. […]
(§2) After digestion, the primary cardiac cells from neonatal mice were re-suspended into a 6-well plate at a appropriate concentration with volume of 2 mL for each well. […] The activity of SOD and the content of ATP in the cells were determined according to the instruction provided in the SOD and ATP detection kit, respectively. […]
(§3) The experiment data were expressed as mean±standard error. The SOD and ATP content in the cells in each group were analyzed by One-way ANOVA, with P<0.05 indicating a significant difference. All experiment results were statistically analyzed and plotted using Graphpad Prism 8.0.

[4] = test system: primary cardiac cells from neonatal mice after H2O2 treatment; assay: SOD in H2O2-injured primary cardiac cells (WST-1 assay); format: cell-based
Protocol: Dismutation of superoxide anion can be catalyzed by superoxide dismutase (SOD) to give hydrogen peroxide and oxygen. SOD is a kind of important antioxidases in organisms. SOD plays a vital role in the equilibrium between oxidation and anti-oxidation in organisms. SOD is able to scavenge superoxide anion free radicals and protect cells from injuries. In this test, the SOD activity was determined using WST-1 assay.
as §1, §2, §3

[5] = 40 mg/kg gavage once per day, ##P<0.01
[6] = vs. the model group, among 1, 2.5 and 5 μM, H2O2 100 μM

SMILES: COc1ccc2cc3[n+](cc2c1OCCCOC(=O)c1cscn1)CCc1cc2c(cc1-3)OCO2.[Br-] [9-(3-((thiazole-4-carbonyl)oxy)propoxy)-10-methoxy-5,6-dihydro-[1,3]dioxolo[4,5-g]isoquinolino[3,2-a]isoquinolin-7-ium bromide]
- ejection fraction (EF) vs. the myocardial infarction group [1, 5]: significantly increased
- fraction shortening (FS) vs. the myocardial infarction group [1, 5]: significantly increased
- effect on EF and FS compared with berberine ([1]; both 40 mg/kg gavage, &P<0.05 vs. the berberine group): better than that of the berberine
- inhibition at 1000 µM ([2]; Mus musculus, 1000 μM, CCK-8, OD450, read-out: cell inhibition rate): 41%
- toxicity on primary cardiac cells ([2]; concentration range tested 0.1-1000 μM): low toxicity
- ATP content vs. the model group ([3]; 1, 2.5 and 5 μM, H2O2 100 μM, 24 hours, ##P<0.01, ###P<0.001): increased
- ATP effect compared with berberine ([3]; same concentration (5 μM), &&P<0.01): apparently better than the effect of berberine at the same concentration
- highest enhancement of the ATP content [3, 6]: 59.1%
- SOD content vs. the model group ([4]; 1, 2.5 and 5 μM, H2O2 100 μM, 24 hours, #P<0.05, ###P<0.001): increased
- SOD effect compared with berberine ([4]; same concentration (5 μM), &P<0.05): apparently better than the effect of berberine at the same concentration
- highest enhancement of the SOD content [4, 6]: 43.4%
